Laboratory results from patent US20240239840A1, “method for the treatment of pain and a medicinal product for administration during pain” (PVP LABS PTE.LTD., priority 2023, published 2024).
Square brackets hold non-standard residues; d marks the D form. Peptide text beside a SMILES is read from it.

Legend:
other opioid receptors = assay: opioid receptor specificity of the tetrapeptide; assay type: binding
From the text: (§1) Two subtypes of μ receptors are recognized: activation of μ1 receptors causes pronounced analgesia, while activation of μ2-receptors leads to respiratory depression, cardiovascular system disturbances such as bradycardia, and suppression of intestinal motility. Therefore, high specificity of the tetrapeptide in question to μ1-opioid receptors ensures the absence of side effects that are typical of most opioid narcotic medications. This tetrapeptide interacts with peripheral and central receptors, although it mostly acts at the spinal level. After the tetrapeptide binds to μ1-receptors, G-protein complex is released, which inhibits the release of neurotransmitters by the cell by reducing the amount of cAMP produced, closing calcium channels and opening potassium channels, which, among other consequences, inhibits the transmission of pain signals in nociceptors. The tetrapeptide activates the antinociceptive system, thereby disrupting interneuronal transmission of pain signals at different levels of the CNS, and changes the intensity of pain perception by acting on the higher brain centres.

μ1-opioid receptor = μ1-opioid receptor (Homo sapiens, UniProt P35372); assay: opioid receptor specificity of the tetrapeptide; assay type: binding
From the text: as §1

δ-receptors = δ-receptors (Homo sapiens, UniProt P41143); assay: opioid receptor specificity of the tetrapeptide; assay type: binding
From the text: as §1

[1] = test system: patients with early postoperative pain; assay: clinical trial of pain treatment in the early postoperative period, efficacy; assay type: in vivo, human
Protocol: (§2) Additional clinical trials focused of the treatment of pain in the early postoperative period after a variety of surgical interventions, including urological, gynaecological and other surgeries.
(§3) If NRS pain intensity score on day two was <4, only paracetamol was administered by IV injection as necessary, and the maximum daily dose was […]. […] Pain was usually brought under control within 1-2 days in the early postoperative period.

[2] = clinical trial of pain treatment in the early postoperative period, safety; assay type: in vivo, human; settings: groups treated with Promedol
Protocol: as §2, §3

[3] = phase III clinical trial, safety in patients with cancer pain
[4] = test system: patients with cancer pain; assay: phase III clinical trial, efficacy in patients with cancer pain; assay type: in vivo, human
Protocol: Primary efficacy evaluation was performed during the following visits: Visit 1 (day 1 of tetrapeptide treatment), Visit 2 (day 28±2 of tetrapeptide treatment), Visit 3 (day 56±2 of tetrapeptide treatment) and Visit 4 (day 86±2 of tetrapeptide treatment).
Analgesic treatment response maintenance rate by day 28.
Treatment response was considered maintained if all of the following conditions were met: • 1. […] Daily average pain intensity at the end of the 28-day treatment period remains at <50% of the intensity at the start of titration.

[5] = phase II clinical trial, safety in cancer patients experiencing pain
Protocol: (§4) Pain intensity was evaluated on a numeric rating scale (NRS) from 0 to 10. […] The patients' physical activity score on the Eastern Cooperative Oncology Group (ECOG) performance status scale was 0 to 3, i.e. they were active and were up and about for over 50% of waking hours (grade 2 on the ECOG scale) or were capable of only limited self-care and confined to bed or chair more than 50% of waking hours (grade 3 on the ECOG scale).
(§5) The study was carried out in two stages. The total duration of the trial for each patient was 20 days or less. […] The number of doses depended on pain intensity as evaluated on the NRS scale for each individual patient.
Comments: 1. […] 2. SAE=serious adverse event.

[6] = test system: cancer patients with severe cancer pain; assay: phase II clinical trial, efficacy in cancer patients experiencing pain; assay type: in vivo, human
Protocol: as §4, §5
The primary efficacy endpoint was the rate of achieving a sufficient analgesic effect throughout the day.

[7] = Promedol 20 mg three times daily
[8] = Promedol 20 mg three times daily on day 1
[9] = investigator-evaluated, Visit 2

Sequence of δ-receptors (P41143 whole entry): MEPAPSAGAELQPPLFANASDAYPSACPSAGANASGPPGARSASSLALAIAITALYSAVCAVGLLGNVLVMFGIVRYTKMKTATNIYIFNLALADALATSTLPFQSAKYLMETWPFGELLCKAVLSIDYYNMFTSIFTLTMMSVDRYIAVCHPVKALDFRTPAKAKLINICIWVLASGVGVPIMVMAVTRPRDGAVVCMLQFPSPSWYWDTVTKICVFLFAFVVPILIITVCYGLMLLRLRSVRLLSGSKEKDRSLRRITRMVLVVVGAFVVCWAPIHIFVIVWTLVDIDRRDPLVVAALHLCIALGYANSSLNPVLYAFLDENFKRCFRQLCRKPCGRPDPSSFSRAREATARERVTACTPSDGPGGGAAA
Sequence of μ1-opioid receptor (P35372 whole entry): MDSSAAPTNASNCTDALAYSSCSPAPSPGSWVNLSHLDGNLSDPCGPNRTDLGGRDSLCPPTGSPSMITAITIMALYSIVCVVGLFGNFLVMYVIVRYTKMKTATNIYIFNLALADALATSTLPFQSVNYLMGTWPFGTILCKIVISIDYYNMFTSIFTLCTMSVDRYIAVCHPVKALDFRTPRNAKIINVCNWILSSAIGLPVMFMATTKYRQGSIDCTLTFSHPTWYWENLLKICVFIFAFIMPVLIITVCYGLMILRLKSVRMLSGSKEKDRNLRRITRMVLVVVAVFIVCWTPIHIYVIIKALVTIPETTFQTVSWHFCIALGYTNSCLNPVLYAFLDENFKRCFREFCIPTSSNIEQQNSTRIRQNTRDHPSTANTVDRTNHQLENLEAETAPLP

Compound: N=C(N)NCCC[C@@H](NC(=O)[C@@H](N)Cc1ccc(O)cc1)C(=O)N[C@@H](Cc1ccccc1)C(=O)NCC(N)=O [H-Tyr-D-Arg-Phe-Gly-NH2, Tyrosyl-D-arginyl-phenylalanyl-glycinamide] (H-Y[dR]FG-NH2)
- interactions with the other receptors (other opioid receptors): no interactions with the other receptors have been detected
- opioid receptor activity (μ1-opioid receptor): highly specific μ1-opioid receptor agonist
- interaction with δ-receptors weaker than with μ-opioid receptors (δ-receptors): 3 orders of magnitude

Compound: CCC(=O)OC1(c2ccccc2)CC(C)N(C)CC1C (centres unmarked) [Promedol]
- daily average NRS pain intensity score [1, 7]: 2.16±0.66
- mean change in pain intensity [1, 7]: 55.44±33.17%
- proportion of patients with greater than 50% pain relief at 1 hour after the initial dose [1, 7]: 50%
- patients requiring repeat dosing on day 2 who were dosed three times [1, 8]: 16.67%
- patients requiring repeat dosing on day 2 who were dosed twice [1, 8]: 83.33%
- daily average NRS pain intensity score ([1]; day 2, Promedol 20 mg three times daily): 1.41±1.92
- patients with AEs [2]: 35%

Compound: CN1CC[C@]23c4c5ccc(O)c4O[C@H]2[C@@H](O)C=C[C@H]3[C@H]1C5 [morphine]
- prevalence of patients with AEs ([3]; Period 1): 71.19%
- total number of AEs reported ([3]; Period 1): 119
- AEs mild ([3]; Period 1, % of cases): 65.55%
- AEs moderate ([3]; Period 1, % of cases): 33.61%
- AEs severe ([3]; Period 1, % of cases): 0.84%
- causality between AEs and therapy: certain ([3]; Period 1, % of cases): 13.44%
- causality between AEs and therapy: conditional ([3]; Period 1, % of cases): 0.84%
- causality between AEs and therapy: possible ([3]; Period 1, % of cases): 38.66%
- causality between AEs and therapy: probable ([3]; Period 1, % of cases): 29.41%
- causality between AEs and therapy: unclassifiable ([3]; Period 1, % of cases): 0.84%
- causality between AEs and therapy: unlikely ([3]; Period 1, % of cases): 11.76%
- causality between AEs and therapy: unrelated ([3]; Period 1, % of cases): 5.04%
- number of AEs with causality “certain”, “probable” or “possible” ([3]; both, human, in vivo, oral): 97
- prevalence of patients with reported AEs ([3]; comprehensive within-group analysis (44/120 vs 43/59)): 72.88%
- average SF-36 mental health score ([4]; Visit 0): 31.42±12.16
- average SF-36 physical health score ([4]; Visit 0): 32.22±10.76
- average SF-36 mental health score ([4]; Visit 2): 31.42±12.16
- average SF-36 physical health score ([4]; Visit 2): 49.52±11.73
- non-responders to therapy ([4]; by Visit 2): no non-responders
- proportion of patients who required a dose increase ([4]; by Visit 2): 6.52%
- proportion of patients with at least one episode of breakthrough pain ([4]; by Visit 2): 2.17%
- daily average NRS pain intensity score (Mean±SD) ([4]; by group, at Visit 2): 0.28±0.30
- proportion of patients with a “good response” to therapy [4, 9]: 67.39%
- proportion of patients with a “satisfactory response” to therapy [4, 9]: 0.00%
- proportion of patients with an “excellent response” to therapy [4, 9]: 32.61%
- dyspnoea / difficulty breathing ([5]; human, in vivo): difficulty breathing was observed
- Acute heart failure (SAE), % of the total number of AEs for the group ([5]; stage 2): (3.7) %
- Anaemia, % of the total number of AEs for the group ([5]; stage 2): (3.7) %
- Appetite lost, % of the total number of AEs for the group ([5]; stage 2): (7.4) %
- Asthenia, % of the total number of AEs for the group ([5]; stage 2): (14.8) %
- Constipation, % of the total number of AEs for the group ([5]; stage 2): (14.8) %
- Cough, % of the total number of AEs for the group ([5]; stage 2): (3.7) %
- Dizziness postural, % of the total number of AEs for the group ([5]; stage 2): (0) %
- Dizziness, % of the total number of AEs for the group ([5]; stage 2): (3.7) %
- Dry mouth, % of the total number of AEs for the group ([5]; stage 2): (3.7) %
- Flatulence, % of the total number of AEs for the group ([5]; stage 2): (3.7) %
- Insomnia, % of the total number of AEs for the group ([5]; stage 2): (3.7) %
- Multiple organ dysfunction syndrome (SAE), % of the total number of AEs for the group ([5]; stage 2): (3.7) %
- Nausea, % of the total number of AEs for the group ([5]; stage 2): (3.7) %
- Peripheral oedema, % of the total number of AEs for the group ([5]; stage 2): (3.7) %
- Pulmonary oedema (SAE), % of the total number of AEs for the group ([5]; stage 2): (3.7) %
- Sedation, % of the total number of AEs for the group ([5]; stage 2): (7.4) %
- Shortness of breath, % of the total number of AEs for the group ([5]; stage 2): (3.7) %
- Total, % of the total number of AEs for the group ([5]; stage 2): (100) %
- Vomiting, % of the total number of AEs for the group ([5]; stage 2): (3.7) %
- incidence of AEs ([5]; stage 2, 16 patients per group): 50.0%
- number of patients in whom AEs were reported ([5]; stage 2, 16 patients per group): 8
- number of SAEs reported ([5]; stage 2, in 1 patient): 1
- average stable daily dose ensuring adequate pain relief ([6]; baseline, all Taphalgin dose subgroups): 20.31 mg
- average starting dose ([6]; before study, patients of the 2 mg Taphalgin subgroup): 18.33 mg
- within-group trend of daily average NRS pain intensity scores ([6]; stage 2): flat
- daily average NRS pain intensity score ([6]; stage 2, day of dosing 11): 0.12 ± 0.22
- daily average NRS pain intensity score ([6]; stage 2, day of dosing 12): 0.30 ± 0.38
- daily average NRS pain intensity score ([6]; stage 2, day of dosing 13): 0.24 ± 0.35
- daily average NRS pain intensity score ([6]; stage 2, day of dosing 14): 0.24 ± 0.35
- daily average NRS pain intensity score ([6]; stage 2, day of dosing 15): 0.28 ± 0.30
- daily average NRS pain intensity score ([6]; stage 2, day of dosing 16): 0.17 ± 0.21
- daily average NRS pain intensity score ([6]; stage 2, day of dosing 17): 0.17 ± 0.23
